From US4268680A, “Heterocyclic derivatives of 1-(1,3-dioxolan-2-ylmethyl)-1H-imidazoles and 1H-1,2,4-triazoles” (Janssen Pharmaceutica N.V., priority 1979, dated 1981)

Tested on: Candida albicans
Assay: Experiment B: Activity of compounds (I) against crop candidosis in turkeys
Format: in vivo
Settings: Table II; medicated feed for 13 consecutive days; crops of 50% of the animals completely negative for Candida albicans
Description: Experiment B: Activity of compounds (I) against crop candidosis in turkeys. Turkeys of 14 days old were infected in the crop with 4.10^6 Candida albicans cells, grown on Sabouraud broth for 48 hours at 37° C. and diluted with saline. The volume of the inoculum was 1 ml. The drug under investigation were premixed in 500 mg of lacton and thereafter admixed in 1000 g of meal without any additives. The concentration of the drug under investigation in the meal was expressed in mg/kg. The animals were given the medicated feed for 13 consecutive days starting on the day of infection. At the end of the experiment all animals were sacrificed. At autopsy the crops were removed, emptied and grinded in an ultra-turrax mixer in 15 ml of sterile saline. Colony counting was done on Sabouraud agar and the results given in Tables I and II represent the ED50, i.e., the dose of the drug whereby the crops of 50% of the animals were completely negative for Candida albicans.

Clc1ccc(C2(Cn3cncn3)OCC(COc3ccc(-n4ccnc4)cc3)O2)c(Cl)c1 (stereo not shown)
Crop candidosis in Turkeys: EO50 in mg/kg in feed: 8 mg/kg in feed
